Columns and labels:
[1] = target: T1, Solute carrier organic anion transporter family member 1B3 (Homo sapiens, UniProt Q9NPD5); assay: (§1) TP_TRANSPORTER: uptake in OATP8-expressing HEK293 cells; assay type: functional, cell-based; details: hek293
T1 sequence (Q9NPD5 whole entry): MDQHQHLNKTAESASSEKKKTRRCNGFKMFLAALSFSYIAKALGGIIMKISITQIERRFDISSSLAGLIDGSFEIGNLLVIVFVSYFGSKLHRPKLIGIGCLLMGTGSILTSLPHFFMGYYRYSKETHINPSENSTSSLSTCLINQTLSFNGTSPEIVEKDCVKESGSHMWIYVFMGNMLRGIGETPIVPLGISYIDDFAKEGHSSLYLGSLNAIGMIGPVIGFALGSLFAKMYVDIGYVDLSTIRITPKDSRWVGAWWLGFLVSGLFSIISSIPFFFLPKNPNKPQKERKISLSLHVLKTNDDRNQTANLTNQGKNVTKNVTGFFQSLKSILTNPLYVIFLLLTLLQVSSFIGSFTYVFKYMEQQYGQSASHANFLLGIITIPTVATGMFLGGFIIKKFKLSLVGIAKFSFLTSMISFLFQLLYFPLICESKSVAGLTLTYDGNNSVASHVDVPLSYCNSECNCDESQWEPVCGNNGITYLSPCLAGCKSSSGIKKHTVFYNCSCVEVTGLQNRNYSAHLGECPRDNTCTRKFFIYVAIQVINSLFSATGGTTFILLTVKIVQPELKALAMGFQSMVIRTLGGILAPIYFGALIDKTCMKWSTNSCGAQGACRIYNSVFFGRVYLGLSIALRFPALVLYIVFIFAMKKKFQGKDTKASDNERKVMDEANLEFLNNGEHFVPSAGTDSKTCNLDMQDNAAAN

OATP8 (OATP1B3, SLCO1B3) = target: T2, OATP8 (OATP1B3, SLCO1B3) (Homo sapiens, UniProt Q9NPD5); assay: as §1; assay type: functional, cell-based; details: HEK293 cells that express OATP8 (OATP1B3)
T2 sequence (Q9NPD5 whole entry): T1 sequence (Q9NPD5 whole entry)

| Structure (SMILES) | Activity [1] | Km [1] [µM] | Km (OATP8 (OATP1B3, SLCO1B3)) [µM] |
| --- | --- | --- | --- |
| CCCCC/C=C\C\C=C/C=C/C=C/[C@@H](SC[C@@H](NC(=O)CC[C@H](N)C(=O)O)C(=O)NCC(=O)O)[C@@H](O)CCCC(=O)O [LEUKOTRIEN C4] | substrate [+] |  |  |
| C[C@]12CC[C@@H]3c4ccc(O)cc4CC[C@H]3[C@@H]1CC[C@@H]2O[C@@H]1O[C@H](C(=O)O)[C@@H](O)[C@H](O)[C@H]1O [ESTRADIOL 17B GLUCURONIDE] |  | 5.4 | 5.4 |
| O=C1OC(c2ccc(O)c(S(=O)(=O)O)c2)(c2ccc(O)c(S(=O)(=O)O)c2)c2c(Br)c(Br)c(Br)c(Br)c21 [SULFOBROMOPHTHALEIN SODIUM] |  | 3.3 | 3.3 |

Source: ChEMBL document CHEMBL2074439, “Localization and genomic organization of a new hepatocellular organic anion transporting polypeptide” (J Biol Chem, 2000)
